Assay results: patent US20260306525A1, “COMBINATION THERAPY GLUCOCORTICOIDS AND GINSENOSIDE” (FYTAGORAS B.V., priority 2023, published 2026)

Experiments:
Type in all cases: in vivo, zebrafish (Danio rerio)
neutrophils = assay: zebrafish tail fin wounding assay, neutrophil migration to wounded site; settings: for migration of neutrophils upon tail fin wounding: Example 2, PPT 50 μM, F1, Rh1, Rg1 100 μM, Bec positive control, 3 dpf; for reduction in neutrophil migration in presence of Gba2 inhibitor MZ31: MZ31 (10 μM) co-treatment; for migration of neutrophils towards the wounded site: 4 h after wounding
Method: (§1) Zebrafish (Danio rerio) were maintained and handled according to the guidelines from the Zebrafish Model Organism Database (http://zfin.org) and in compliance with the directives of the local animal welfare committee of Leiden University. Zebrafish were exposed to a 14 h light and 10 h dark cycle to maintain circadian rhythmicity. Fertilization was performed by natural spawning at the beginning of the light period. […] The following zebrafish lines were used in this study: the double transgenic line Tg(mpx:GFP^i114/mpeg1:mCherry^umsF001), in which neutrophils and macrophages are fluorescently labeled (green and red, respectively), and the Tg(9xGCRE-HSV.UI23:EGFP)^ia20 reporter line, in which the gene encoding enhanced green fluorescent protein (EGFP) is driven by a GRE-containing promoter.
(§2) For the tail fin wounding experiments, 20 larvae at 2 or 3 days post-fertilization (dpf) were utilized for each experimental group. For wounding, larvae were anesthetized in egg water containing 0.02% buffered aminobenzoic acid ethyl ester (tricaine; Sigma-Aldrich). Larvae were placed on Petri dishes coated with 2% agarose under a Leica M165C stereomicroscope (Leica Microsystems, Wetzlar, Germany), and the tails were partly amputated using a 1-mm sapphire blade (World Precision Instruments, Sarasota, FL, USA). For quantification of leukocyte migration, larvae were fixed overnight in 4% paraformaldehyde (PFA) at 4° C. The next day, fixed larvae were washed with Phosphate Buffered Saline (PBS) containing 0.1% Tween 20, and stored at 4° C. until imaging.
(§3) The macrophages were detected based on their red (mCherry) fluorescence, and neutrophils based on their green (EGFP) fluorescence. To quantify the number of macrophages and neutrophils recruited to the wounded area, the cells in a defined area of the tail were determined by blinded manual counting.
(§4) Zebrafish (Danio rerio) were maintained and handled according to the guidelines from the Zebrafish Model Organism Database (http://zfin.org) and in compliance with the directives of the local animal welfare committee of Leiden University. Zebrafish were exposed to a 14 h light and 10 h dark cycle to maintain circadian rhythmicity. Fertilization was performed by natural spawning at the beginning of the light period. […] The following zebrafish lines were used in this study: AB/TL wild type, the transgenic lines Tg(mpx:GFP^i114/mpeg1:mCherry^umsF001)[14, 15], and Tg(9xGCRE-HSV.UI23:EGFPia^20)[16], and the mutant lines grs357[20].
(§5) For the tail fin wounding experiments, 2- or 3-days post-fertilization (dpf) larvae were anesthetized in egg water containing 0.02% buffered aminobenzoic acid ethyl ester (tricaine; Sigma-Aldrich). Larvae were placed in Petri dishes coated with 2% agarose under a Leica M165C stereomicroscope (Leica Microsystems, Wetzlar, Germany), and the tails were partly amputated using a 1-mm sapphire blade (World Precision Instruments, Sarasota, FL, USA).
(§6) In experiments in which the leukocyte migration was used as a readout, larvae were subjected to treatment with chemicals as indicated, starting at 2 h before the amputation (pretreatment), and treatment was continued for 4 h after the tail fin amputation (20 larvae per group, unless indicated otherwise). In some experiments, a 24 h treatment with MZ31 (10 μM) was started at 2 dpf, and these treatments were continued during the pretreatment and treatment with the other chemicals. At 4 h after amputation, the larvae were fixed in 4% paraformaldehyde (PFA) overnight at 4° C. The next day, fixed larvae were washed with Phosphate Buffered Saline (PBS) containing 0.1% Tween 20 and stored at 4° C. until imaging. […] The macrophages were detected based on red (mCherry) fluorescence and neutrophils on their green (EGFP) fluorescence. To quantify the number of macrophages and neutrophils recruited to the wounded area, the cells in a defined area of the tail were determined by blinded manual counting. […]

mmp13 = assay: qPCR mmp13 expression in zebrafish larvae; settings: Example 2, wounded larvae
Method: To determine mRNA levels of specific genes in zebrafish, 3 dpf larvae were used (wounded and non-wounded) and after 6 h of chemical treatments (2 h pre-wounding, 4 h post-wounding), as indicated. Per sample, groups of 15 larvae were collected in TRIzol reagent (Thermo Fisher Scientific, Waltham, MA, USA), and total RNA was isolated using the miRNeasy mini kit (Qiagen, Hilden, Germany). For similar experiments in Hela cells, cells were seeded in 6 well plates, and after 6 h of chemical treatment, the cells were removed from the wells using TRIzol reagent, and total RNA was isolated using the miRNeasy mini kit according to the manufacturer's instructions. The RNA samples were DNAse-treated utilizing the DNA-free™ DNA Removal Kit (Thermo Fisher Scientific). The cDNA synthesis was performed using the iScript cDNA synthesis kit (Bio-Rad Laboratories, Hercules, CA, USA) using 1 μg of RNA per sample. For the PCR reactions, 10 μM of forward and 10 μM of reverse primer, 12.5 μl of iQ SYBR Green Supermix (Bio-Rad), and 2 μl of cDNA were added to the qPCR reaction mixture. […] The reactions were performed on a MyiQ-single-color real-time PCR detection system (Bio-Rad Laboratories) with initial denaturation for 3 min at 95° C. and 40 cycles of 15 s at 95.5° C., 15 s at 60° C., and 30 s at 72° C. Cycle threshold values (Ct values, i.e. the cycle numbers at which a threshold value of the fluorescence intensity was reached) were determined for each sample. The gene expression level for each sample was normalized using the expression of ppial (peptidylprolyl isomerase Ab (cyclophilin A)) for zebrafish samples, 18S rRNA for human cells. The fold change per sample (compared to the respective control group) was calculated using the ΔΔCt method.

macrophages = assay: zebrafish tail fin wounding assay, macrophage migration to wounded site; settings: Example 2; PPT 50 μM; F1, Rh1, Rg1 100 μM; Bec positive control; 3 dpf
Method: as §1, §2, §3, §4, §5, §6

Row | SMILES | migration of neutrophils upon tail fin wounding (neutrophils) | reduction in neutrophil migration in presence of Gba2 inhibitor MZ31 (neutrophils) | mmp13 expression (mmp13) | macrophage migration upon tail fin wounding (macrophages) | migration of neutrophils towards the wounded site (neutrophils; Rg1 40 μM and lower) | migration of neutrophils towards the wounded site (neutrophils; beclomethasone 20 μM and 40 μM) | migration of neutrophils towards the wounded site (neutrophils; beclomethasone lower than 10 μM)
1 | CC(C)=CCC[C@](C)(O[C@@H]1O[C@H](CO)[C@@H](O)[C@H](O)[C@H]1O)[C@H]1CC[C@]2(C)[C@@H]1[C@H](O)C[C@@H]1[C@@]3(C)CC[C@H](O)C(C)(C)[C@@H]3[C@@H](O)C[C@]12C [F1] | inhibited the migration of neutrophils | did not affect the reduction in neutrophil migration | Only a minor effect | without affecting the macrophage migration |  |  | 
2 | CC(C)=CCC[C@](C)(O)[C@H]1CC[C@]2(C)[C@@H]1[C@H](O)C[C@@H]1[C@@]3(C)CC[C@H](O)C(C)(C)[C@@H]3[C@@H](O)C[C@]12C [PPT, Protopanaxatriol] | inhibited the migration of neutrophils | did not affect the reduction in neutrophil migration | Only a minor effect | without affecting the macrophage migration |  |  | 
3 | CC(C)=CCC[C@](C)(O[C@@H]1O[C@H](CO)[C@@H](O)[C@H](O)[C@H]1O)[C@H]1CC[C@]2(C)[C@@H]1[C@H](O)C[C@@H]1[C@@]3(C)CC[C@H](O)C(C)(C)[C@@H]3[C@@H](O[C@@H]3O[C@H](CO)[C@@H](O)[C@H](O)[C@H]3O)C[C@]12C [Rg1, (3β,6α, 12β)-3,12-Dihydroxydammar-24-ene-6,20-diyl bis-β-D-glucopyranoside] | inhibited the migration of neutrophils | this inhibitor abolished the effect of the polyglycosylated ginsenoside Rg1 | no effect | without affecting the macrophage migration | did not alter the neutrophil migration |  | 
4 | CC(C)=CCC[C@](C)(O)[C@H]1CC[C@]2(C)[C@@H]1[C@H](O)C[C@@H]1[C@@]3(C)CC[C@H](O)C(C)(C)[C@@H]3[C@@H](O[C@@H]3O[C@H](CO)[C@@H](O)[C@H](O)[C@H]3O)C[C@]12C [Rh1] | inhibited the migration of neutrophils | did not affect the reduction in neutrophil migration | no effect | without affecting the macrophage migration |  |  | 
5 | C[C@H]1C[C@H]2[C@@H]3CCC4=CC(=O)C=C[C@]4(C)[C@@]3(Cl)[C@@H](O)C[C@]2(C)[C@@]1(O)C(=O)CO [beclomethasone, reference compound] | inhibited the migration of neutrophils |  |  | without affecting the macrophage migration |  | did significantly reduce the neutrophil migration | did not affect the migration of neutrophils towards the wounded site
